Experimental data from US12077503B2, “Substituted cyclic amides and their use as herbicides” (FMC CORPORATION, priority 2015, dated 2024).

Assays:
Format in all cases: in vivo
[1] = tested on: barnyardgrass (Echinochloa crus-galli); assay: Test G Pre-Emergence Protocol; settings: Echinochloa crus-galli, pre-emergence, 312 h, evaluated after 13 days; for pest or weed control at 15.625 g/ha: 15.625 g ai/ha; for pest or weed control at 15.625 g/ha / pest or weed control at 250 g/ha: read-out: Barnyardgrass damage rating (100=total damage to plant; 0=no damage to plant); for pest or weed control at 62.5 g/ha: 62.5 g ai/ha, 100=total damage to plant, 0=no damage to plant, read-out: Barnyardgrass damage rating; for pest or weed control at 250 g/ha: 250 g ai/ha
Summary of the method: (§1)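 Seeds were sown in standard soil and kept one day in a glasshouse (24/16° C day/night, 14 h light, 65% humidity), then sprayed with compound in acetone/water (50:50) containing 0.5% Tween 20 at 15.625, 62.5 or 250 g/ha. Damage was scored after 13 days (0 = none, 100 = total).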

corn (Zea mays) [2] = assay: Test G Pre-Emergence Protocol; settings: Zea mays, pre-emergence, 312 h, evaluated after 13 days; for plant injury at 15.625 g/ha: 15.625 g ai/ha; for plant injury at 15.625 g/ha / plant injury at 250 g/ha: read-out: Corn damage rating (100=total damage to plant; 0=no damage to plant); for plant injury at 62.5 g/ha: 62.5 g ai/ha, 100=total damage to plant, 0=no damage to plant, read-out: Corn damage rating; for plant injury at 250 g/ha: 250 g ai/ha
Summary of the method: as §1

[3] = tested on: giant foxtail (Setaria faberi); assay: Test G Pre-Emergence Protocol; settings: Setaria faberi, pre-emergence, 312 h, evaluated after 13 days; for pest or weed control at 15.625 g/ha: 15.625 g ai/ha; for pest or weed control at 15.625 g/ha / pest or weed control at 250 g/ha: read-out: Foxtail, Giant damage rating (100=total damage to plant; 0=no damage to plant); for pest or weed control at 62.5 g/ha: 62.5 g ai/ha, 100=total damage to plant, 0=no damage to plant, read-out: Foxtail, Giant damage rating; for pest or weed control at 250 g/ha: 250 g ai/ha
Summary of the method: as §1

[4] = tested on: ivy-leaved morning glory (Ipomoea hederacea); assay: Test G Pre-Emergence Protocol; settings: Ipomoea, pre-emergence, 312 h, evaluated after 13 days; for pest or weed control at 15.625 g/ha: 15.625 g ai/ha; for pest or weed control at 15.625 g/ha / pest or weed control at 250 g/ha: read-out: Morningglory, Ivy-leaved damage rating (100=total damage to plant; 0=no damage to plant); for pest or weed control at 62.5 g/ha: 62.5 g ai/ha, 100=total damage to plant, 0=no damage to plant, read-out: Morningglory, Ivy-leaved damage rating; for pest or weed control at 250 g/ha: 250 g ai/ha
Summary of the method: as §1

[5] = tested on: redroot pigweed (Amaranthus retroflexus); assay: Test G Pre-Emergence Protocol; settings: Amaranthus retroflexus, pre-emergence, 312 h, evaluated after 13 days; for pest or weed control at 15.625 g/ha: 15.625 g ai/ha; for pest or weed control at 15.625 g/ha / pest or weed control at 250 g/ha: read-out: Pigweed, Redroot damage rating (100=total damage to plant; 0=no damage to plant); for pest or weed control at 62.5 g/ha: 62.5 g ai/ha, 100=total damage to plant, 0=no damage to plant, read-out: Pigweed, Redroot damage rating; for pest or weed control at 250 g/ha: 250 g ai/ha
Summary of the method: as §1

[6] = tested on: velvetleaf (Abutilon theophrasti); assay: Test G Pre-Emergence Protocol; settings: Abutilon theophrasti, pre-emergence, 312 h, evaluated after 13 days; for pest or weed control at 15.625 g/ha: 15.625 g ai/ha; for pest or weed control at 15.625 g/ha / pest or weed control at 250 g/ha: read-out: Velvetleaf damage rating (100=total damage to plant; 0=no damage to plant); for pest or weed control at 62.5 g/ha: 62.5 g ai/ha, 100=total damage to plant, 0=no damage to plant, read-out: Velvetleaf damage rating; for pest or weed control at 250 g/ha: 250 g ai/ha
Summary of the method: as §1

[7] = tested on: barnyardgrass (Echinochloa crus-galli); assay: Test G Post-Emergence Protocol; settings: Echinochloa crus-galli, post-emergence, 312 h, read-out: Barnyardgrass damage rating; for pest or weed control at 15.625 g/ha: 15.625 g ai/ha, evaluated after 13 days (100=total damage to plant; 0=no damage to plant); for pest or weed control at 62.5 g/ha: 62.5 g ai/ha; for pest or weed control at 62.5 g/ha / pest or weed control at 250 g/ha: evaluated after 13 days, 100=total damage to plant, 0=no damage to plant; for pest or weed control at 250 g/ha: 250 g ai/ha
Summary of the method: (§2)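 Damage was rated 13 days after treatment from 0 (none) to 100 (plant killed). Compound was applied as a spray at 15.625, 62.5 or 250 g/ha in 50:50 acetone/water containing 0.5% Tween 20, onto 8-day-old potted plants kept in a glasshouse (24/16 °C, 14 h light, 65% humidity).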

corn (Zea mays) [8] = assay: Test G Post-Emergence Protocol; settings: Zea mays, post-emergence, 312 h, read-out: Corn damage rating; for plant injury at 15.625 g/ha: 15.625 g ai/ha, evaluated after 13 days (100=total damage to plant; 0=no damage to plant); for plant injury at 62.5 g/ha: 62.5 g ai/ha; for plant injury at 62.5 g/ha / plant injury at 250 g/ha: evaluated after 13 days, 100=total damage to plant, 0=no damage to plant; for plant injury at 250 g/ha: 250 g ai/ha
Summary of the method: as §2

[9] = tested on: giant foxtail (Setaria faberi); assay: Test G Post-Emergence Protocol; settings: Setaria faberi, post-emergence, 312 h, read-out: Foxtail, Giant damage rating; for pest or weed control at 15.625 g/ha: 15.625 g ai/ha, evaluated after 13 days (100=total damage to plant; 0=no damage to plant); for pest or weed control at 62.5 g/ha: 62.5 g ai/ha; for pest or weed control at 62.5 g/ha / pest or weed control at 250 g/ha: evaluated after 13 days, 100=total damage to plant, 0=no damage to plant; for pest or weed control at 250 g/ha: 250 g ai/ha
Summary of the method: as §2

[10] = tested on: ivy-leaved morning glory (Ipomoea hederacea); assay: Test G Post-Emergence Protocol; settings: Ipomoea, post-emergence, 312 h, read-out: Morningglory, Ivy-leaved damage rating; for pest or weed control at 15.625 g/ha: 15.625 g ai/ha, evaluated after 13 days (100=total damage to plant; 0=no damage to plant); for pest or weed control at 62.5 g/ha: 62.5 g ai/ha; for pest or weed control at 62.5 g/ha / pest or weed control at 250 g/ha: evaluated after 13 days, 100=total damage to plant, 0=no damage to plant; for pest or weed control at 250 g/ha: 250 g ai/ha
Summary of the method: as §2

[11] = tested on: redroot pigweed (Amaranthus retroflexus); assay: Test G Post-Emergence Protocol; settings: Amaranthus retroflexus, post-emergence, 312 h, read-out: Pigweed, Redroot damage rating; for pest or weed control at 15.625 g/ha: 15.625 g ai/ha, evaluated after 13 days (100=total damage to plant; 0=no damage to plant); for pest or weed control at 62.5 g/ha: 62.5 g ai/ha; for pest or weed control at 62.5 g/ha / pest or weed control at 250 g/ha: evaluated after 13 days, 100=total damage to plant, 0=no damage to plant; for pest or weed control at 250 g/ha: 250 g ai/ha
Summary of the method: as §2

[12] = tested on: velvetleaf (Abutilon theophrasti); assay: Test G Post-Emergence Protocol; settings: Abutilon theophrasti, post-emergence, 312 h, read-out: Velvetleaf damage rating; for pest or weed control at 15.625 g/ha: 15.625 g ai/ha, evaluated after 13 days (100=total damage to plant; 0=no damage to plant); for pest or weed control at 62.5 g/ha: 62.5 g ai/ha; for pest or weed control at 62.5 g/ha / pest or weed control at 250 g/ha: evaluated after 13 days, 100=total damage to plant, 0=no damage to plant; for pest or weed control at 250 g/ha: 250 g ai/ha
Summary of the method: as §2

Row | SMILES | pest or weed control at 15.625 g/ha [1] | pest or weed control at 62.5 g/ha [1] | pest or weed control at 250 g/ha [1] | plant injury at 15.625 g/ha (corn (Zea mays) [2]) | plant injury at 62.5 g/ha (corn (Zea mays) [2]) | plant injury at 250 g/ha (corn (Zea mays) [2]) | pest or weed control at 15.625 g/ha [3] | pest or weed control at 62.5 g/ha [3] | pest or weed control at 250 g/ha [3] | pest or weed control at 15.625 g/ha [4] | pest or weed control at 62.5 g/ha [4] | pest or weed control at 250 g/ha [4] | pest or weed control at 15.625 g/ha [5] | pest or weed control at 62.5 g/ha [5] | pest or weed control at 250 g/ha [5] | pest or weed control at 15.625 g/ha [6] | pest or weed control at 62.5 g/ha [6] | pest or weed control at 250 g/ha [6] | pest or weed control at 15.625 g/ha [7] | pest or weed control at 62.5 g/ha [7] | also measured
1 | CN1C[C@H](c2ccc(C(F)(F)F)cc2)[C@@H](C(=O)Nc2cccc(F)[n+]2[O-])C1=O (racemic) [Compound 1814] | 0% | 0% | 0% | 0% | 0% | 0% | 0% | 0% | 0% | 0% | 0% | 0% | 0% | 0% | 0% | 0% | 0% | 0% | 0% | 0% | pest or weed control at 250 g/ha [7]: 0%; plant injury at 15.625 g/ha (corn (Zea mays) [8]): 0%; plant injury at 62.5 g/ha (corn (Zea mays) [8]): 0%; plant injury at 250 g/ha (corn (Zea mays) [8]): 0%; pest or weed control at 15.625 g/ha [9]: 0%; pest or weed control at 62.5 g/ha [9]: 0%; pest or weed control at 250 g/ha [9]: 10%; pest or weed control at 15.625 g/ha [10]: 0%; pest or weed control at 62.5 g/ha [10]: 0%; pest or weed control at 250 g/ha [10]: 0%; pest or weed control at 15.625 g/ha [11]: 0%; pest or weed control at 62.5 g/ha [11]: 0%; pest or weed control at 250 g/ha [11]: 0%; pest or weed control at 15.625 g/ha [12]: 0%; pest or weed control at 62.5 g/ha [12]: 0%; pest or weed control at 250 g/ha [12]: 0%
2 | CN1C[C@@H](c2ccc(CO)cc2)[C@H](C(=O)Nc2cccc(F)c2F)C1=O (racemic) [Compound 1820] | 0% | 0% | 0% | 0% | 0% | 0% | 0% | 0% | 0% | 0% | 0% | 0% | 0% | 0% | 0% | 0% | 0% | 0% | 0% | 0% | pest or weed control at 250 g/ha [7]: 0%; plant injury at 15.625 g/ha (corn (Zea mays) [8]): 0%; plant injury at 62.5 g/ha (corn (Zea mays) [8]): 0%; plant injury at 250 g/ha (corn (Zea mays) [8]): 0%; pest or weed control at 15.625 g/ha [9]: 0%; pest or weed control at 62.5 g/ha [9]: 0%; pest or weed control at 250 g/ha [9]: 0%; pest or weed control at 15.625 g/ha [10]: 0%; pest or weed control at 62.5 g/ha [10]: 0%; pest or weed control at 250 g/ha [10]: 0%; pest or weed control at 15.625 g/ha [11]: 0%; pest or weed control at 62.5 g/ha [11]: 0%; pest or weed control at 250 g/ha [11]: 0%; pest or weed control at 15.625 g/ha [12]: 0%; pest or weed control at 62.5 g/ha [12]: 0%; pest or weed control at 250 g/ha [12]: 0%
3 | CN1C[C@@H](c2cc(Br)cc(Oc3ccccc3)c2)[C@H](C(=O)Nc2cccc(F)c2F)C1=O (racemic) [Compound 1821] | 0% | 0% | 0% | 0% | 10% | 0% | 0% | 10% | 60% | 0% | 0% | 0% | 0% | 0% | 20% | 0% | 0% | 0% | 0% | 0% | pest or weed control at 250 g/ha [7]: 0%; plant injury at 15.625 g/ha (corn (Zea mays) [8]): 10%; plant injury at 62.5 g/ha (corn (Zea mays) [8]): 10%; plant injury at 250 g/ha (corn (Zea mays) [8]): 30%; pest or weed control at 15.625 g/ha [9]: 0%; pest or weed control at 62.5 g/ha [9]: 10%; pest or weed control at 250 g/ha [9]: 30%; pest or weed control at 15.625 g/ha [10]: 0%; pest or weed control at 62.5 g/ha [10]: 0%; pest or weed control at 250 g/ha [10]: 10%; pest or weed control at 15.625 g/ha [11]: 0%; pest or weed control at 62.5 g/ha [11]: 30%; pest or weed control at 250 g/ha [11]: 70%; pest or weed control at 15.625 g/ha [12]: 0%; pest or weed control at 62.5 g/ha [12]: 10%; pest or weed control at 250 g/ha [12]: 0%
